Common to all, as to assay type: physicochemical
Data set [1] in a line: Lipid nanoparticle size and polydispersity by dynamic light scattering. As to conditions: LNP of lipid/DSPC/cholesterol/PEG-lipid 50:10:38.5:1.5 encapsulating hEPO mRNA. The method, boiled down:
(§1)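 LNPs made from ionizable lipid/DSPC/cholesterol/PEG-lipid (50:10:38.5:1.5) and mRNA in citrate pH 4 by microfluidic mixing, lipid:mRNA about 10:1–30:1 w/w, then dialysed into DPBS and filtered. Size and PDI measured by DLS in backscatter mode; encapsulation efficiency measured by RiboGreen assay.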

A short description of data set [2]: Apparent pKa of LNP formulations, TNS fluorescence assay. As to conditions: LNP cationic lipid/DSPC/cholesterol/DMG-PEG 50/10/38.5/1.5 mol %. The method, boiled down: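 LNPs (cationic lipid/DSPC/cholesterol/DMG-PEG 50/10/38.5/1.5 mol %) diluted to 0.1 mg/mL total lipid in citrate/phosphate/borate/NaCl buffers spanning pH 3–9 with TNS. Fluorescence (ex 325, em 435 nm) read at room temperature; pKa taken as the pH at half-maximal intensity from sigmoidal fit.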

Data set [3] in a line: Encapsulation efficiency of lipid nanoparticles, Quant-it Ribogreen RNA assay. Particulars: LNP of lipid/DSPC/cholesterol/PEG-lipid 50:10:38.5:1.5 encapsulating hEPO mRNA. The method, boiled down: as §1

Regarding `CCCCCCCCCCCC(=O)OCCCCCN(CCN(CCO)CCCCCOC(=O)CC(CCCCCCCC)CCCCCCCC)C1CCC1` [Compound 92], in data set [1], the polydispersity worked out at 0.014 and the “size (nm)” value was found to be 80.12 nm. Further, the “Apparent Pka” value in data set [2] was 6.582. The “Encapsulation Efficiency” value in data set [3] is 91.34%.
For the compound `CCCCCCCC(=O)OCC(CCCCN(CCO)CCCCN(CCCCC(COC(=O)CCCCCCC)COC(=O)CCCCCCC)C1CCCC1)COC(=O)CCCCCCC` [Compound 181], in data set [1], the polydispersity came out at 0.154 and the “size (nm)” value is recorded as 119.3 nm. In addition, in data set [2], the “Apparent Pka” value is listed as 6.995. Moreover, in data set [3], the “Encapsulation Efficiency” value stood at 94.10%.
Regarding `CCCCCCCCCCCCCCCCC(CN(CCO)CCN(CC(CCCCCCCCCCCCCCCC)OCCCCCCCC)C1CCC1)OCCCCCCCC` (stereo not shown) [Compound 25], in data set [1], the polydispersity was found to be 0.068 and the “size (nm)” value is 50.59 nm. The “Apparent Pka” value in data set [2] turned out to be 4.853. Moreover, the “Encapsulation Efficiency” value in data set [3] was 90.67%.
As for `CCCCCCCCC(CCCCCC)CNC(=O)CCCCCCN(CCO)CCN(CCCCC(COC(=O)CCCCCCC)COC(=O)CCCCCCC)C1CCCCCC1` (stereo not shown) [Compound 232], in data set [1], the polydispersity came to 0.031 and the “size (nm)” value is recorded as 77.78 nm. For the same compound, in data set [2], the “Apparent Pka” value amounted to 6.567. In addition, the “Encapsulation Efficiency” value in data set [3] is 92.47%.
With `CCCCCCCC/C=C\CCCCCCCC(=O)OCCCCCN(CCN(CCO)CCCCCC(=O)OCC(CCCCCCCC)CCCCCCCC)C1CCCCC1` [Compound 109], in data set [1], the polydispersity turned out to be 0.032 and the “size (nm)” value is reported as 78.27 nm. Further, the “Apparent Pka” value in data set [2] was 6.348. In data set [3], the “Encapsulation Efficiency” value is 92.54%.
As for `CCCCCCCCCCCOC(=O)CCCCCN(CCN(CCO)CCCCCC(OCCCCCCCC)OCCCCCCCC)C1CCC1` [Compound 200], in data set [1], the polydispersity is on record as 0.054 and the “size (nm)” value was 84.18 nm. In addition, the “Apparent Pka” value in data set [2] is given as 6.593. Besides, in data set [3], the “Encapsulation Efficiency” value was found to be 92.81%.
On to `CCCCCCCCC(CCCCCCCC)COC(=O)CCOCCN(CCO)CCN(CCOCCC(=O)OCC(CCCCCCCC)CCCCCCCC)C1CCCCC1` [Compound 113], for which, in data set [1], the polydispersity came to 0.012 and the “size (nm)” value is given as 89.42 nm. Besides, in data set [2], the “Apparent Pka” value was 6.364. Moreover, the “Encapsulation Efficiency” value in data set [3] was 92.93%.
Consider `CCCCCCCCC(CCCCCCCC)CNC(=O)CCCCCN(CCO)CCN(CCCCCC(=O)OCC(CCCCCCCC)CCCCCCCC)C1CCCCCC1` [Compound 17], for which, in data set [1], the polydispersity worked out at 0.033 and the “size (nm)” value turned out to be 58.8 nm. The “Apparent Pka” value in data set [2] is on record as 6.671. The “Encapsulation Efficiency” value in data set [3] was found to be 98.9%.
Turning to `CCCCCCCCCCCC(=O)NCCCCCN(CCN(CCO)CCCCCNC(=O)CC(CCCCCCCC)CCCCCCCC)C1CCCCC1` [Compound 58], in data set [1], the polydispersity was 0.1 and the “size (nm)” value came out at 110 nm. Besides, in data set [2], the “Apparent Pka” value turned out to be 7.327. Moreover, the “Encapsulation Efficiency” value in data set [3] was 97.7%.
For the compound `CCCCCCCCC(CCCCCCCC)CC(=O)OCCCCCN(CCO)CCN(CCCCCOC(=O)CC(CCCCCCCC)CCCCCCCC)C1CCC1` [Compound 62], in data set [1], the polydispersity was determined as 0.034 and the “size (nm)” value is listed as 68.28 nm. For the same compound, the “Apparent Pka” value in data set [2] is given as 6.21. The “Encapsulation Efficiency” value in data set [3] worked out at 92.0%.
The matching figures for `CCCCCCC(=O)OCC(CCCCN(CCO)CCN(CCCCC(COC(=O)CCCCCC)COC(=O)CCCCCC)C1CCC1)COC(=O)CCCCCC` [Compound 165]: 0.125, 131.30 nm, 6.183 and 75.66%.
For the compound `CCCCCCCCC(CCCCCCCC)CNC(=O)CCCCCN(CCN(CCCCCCCCCO)CCCCCC(=O)OCC(CCCCCCCC)CCCCCCCC)C1CCC1` [Compound 78], in data set [1], the polydispersity turned out to be 0.019 and the “size (nm)” value turned out to be 100.3 nm. The “Apparent Pka” value in data set [2] was found to be 6.195. The “Encapsulation Efficiency” value in data set [3] was 88.18%.
In the case of `CCCCCCCCCCCCCCCCCCOC(=O)CCCCCN(CCN(CCO)CCCCCC(=O)OCC(CCCCCCCC)CCCCCCCC)C1CCCCC1` [Compound 105], in data set [1], the polydispersity turned out to be 0.051 and the “size (nm)” value worked out at 69.11 nm. In addition, in data set [2], the “Apparent Pka” value was determined as 6.328. Also, the “Encapsulation Efficiency” value in data set [3] turned out to be 93.35%.
Regarding `CCCCCCCCOC(CCCCCN(CCO)CCN(CCCCCC(=O)NCC(CCCCCC)CCCCCCCC)C1CCCCCC1)OCCCCCCCC` (stereo not shown) [Compound 202], in data set [1], the polydispersity is listed as 0.042 and the “size (nm)” value worked out at 84.35 nm. Also, the “Apparent Pka” value in data set [2] was determined as 6.738. Moreover, the “Encapsulation Efficiency” value in data set [3] is 88.47%.
Take `CCCCCCCC(=O)OCC(CCCCN(CCO)CCCCN(CCCCC(COC(=O)CCCCCCC)COC(=O)CCCCCCC)C(C)C)COC(=O)CCCCCCC` [Compound 189]: in data set [1], the polydispersity was found to be 0.114 and the “size (nm)” value is listed as 87.22 nm. Further, in data set [2], the “Apparent Pka” value is recorded as 6.542. In data set [3], the “Encapsulation Efficiency” value turned out to be 93.88%.
Consider `CCCCCCCCC(CCCCCC)CNC(=O)CCCCCCCN(CCO)CCN(CCCCC(COC(=O)CCCCCCC)COC(=O)CCCCCCC)C1CCCCCCC1` (stereo not shown) [Compound 215], for which, in data set [1], the polydispersity stood at 0.033 and the “size (nm)” value amounted to 67.78 nm. Besides, in data set [2], the “Apparent Pka” value was 6.542. Further, the “Encapsulation Efficiency” value in data set [3] is on record as 90.80%.
In the case of `CCCCCCCCC(CCCCCCCC)COC(=O)CCCCCN(CCO)CCN(CCCCCOC(=O)CCCCC=C(CCCCCC)CCCCCC)C1CCC1` [Compound 87], in data set [1], the polydispersity is 0.055 and the “size (nm)” value was 70.07 nm. For the same compound, the “Apparent Pka” value in data set [2] is 6.476. The “Encapsulation Efficiency” value in data set [3] was determined as 93.34%.
As to `CCCCCCCCC(CCCCCCCC)COC(=O)CCCCCN(CCO)CCN(CCCCCC(=O)OCC(CCCCCCCC)CCCCCCCC)C1CCOCC1` [Compound 28], in data set [1], the polydispersity was 0.045 and the “size (nm)” value came to 62.35 nm. For the same compound, the “Apparent Pka” value in data set [2] came out at 6.686. The “Encapsulation Efficiency” value in data set [3] turned out to be 92.4%.
The matching figures for `CCCCCCCCC(CCCCCCCC)COC(=O)CCCCCN(CCO)CCCCN(CCCCCC(=O)OCC(CCCCCCCC)CCCCCCCC)C1CCC1` [Compound 86]: 0.043, 86.61 nm, 6.814 and 95.02%.
For `CCCCCCCCC(CCCCCC)CNC(=O)CCCCCCN(CCO)CCN(CCCCC(COC(=O)CCCCCCC)COC(=O)CCCCCCC)C1CCCCCCC1` (stereo not shown) [Compound 233], in that order: 0.052, 76.91 nm, 6.463 and 91.15%.
With `CCCCCCCCC(CCCCCC)COC(=O)CCCCCN(CC)CCN(CCO)CCCCC(COC(=O)CCCCCCC)COC(=O)CCCCCCC` (stereo not shown) [Compound 157], in data set [1], the polydispersity is given as 0.112 and the “size (nm)” value came to 88.09 nm. In data set [2], the “Apparent Pka” value is 6.674. Besides, the “Encapsulation Efficiency” value in data set [3] amounted to 95.04%.
Turning to `CCCCCCCCCCCCCCCCOC(=O)CCCCCN(CCN(CCO)CCCCCC(=O)OCC(CCCCCCCC)CCCCCCCC)C1CCCCCCC1` [Compound 131], in data set [1], the polydispersity is reported as 0.121 and the “size (nm)” value came to 56.62 nm. Further, the “Apparent Pka” value in data set [2] is 6.255. Besides, the “Encapsulation Efficiency” value in data set [3] is on record as 92.18%.
